Laboratory results as given in ChEMBL document CHEMBL1155740, “Dicerandrols, new antibiotic and cytotoxic dimers produced by the fungus Phomopsis longicolla isolated from an endangered mint” (2001).
Calls of active or inactive are those of the source. No cut-off for these calls is given here.

Legend:
[1] = tested on: Staphylococcus aureus; experiment: Antibacterial activity against Staphylococcus aureus at 30 ug after overnight incubation by agar diffusion method; assay type: functional; conditions: read-out: IZ
[2] = tested on: A549; experiment: Cytotoxicity against human A549 cells after 72 hrs; assay type: functional
[3] = tested on: Staphylococcus aureus; experiment: Antibacterial activity against Staphylococcus aureus at 100 ug/disk after overnight incubation by agar diffusion method; assay type: functional; conditions: read-out: IZ
[4] = tested on: Bacillus subtilis; experiment: Antibacterial activity against Bacillus subtilis at 100 ug/disk after overnight incubation by agar diffusion method; assay type: functional; conditions: read-out: IZ
[5] = tested on: Geotrichum candidum; experiment: Antifungal activity against Geotrichum candidum at 300 ug/disk; assay type: functional, organism-based
[6] = tested on: Saccharomyces cerevisiae; experiment: Antifungal activity against Saccharomyces cerevisiae at 300 ug/disk; assay type: functional, organism-based
[7] = tested on: HCT-116; experiment: Cytotoxicity against human HCT116 cells after 72 hrs; assay type: functional
[8] = tested on: Bacillus subtilis; experiment: Antibacterial activity against Bacillus subtilis at 30 ug after overnight incubation by agar diffusion method; assay type: functional, organism-based

## NC[C@@H]1O[C@H](O[C@H]2[C@@H](O)[C@H](O[C@@H]3[C@@H](O)[C@H](N)C[C@H](N)[C@H]3O[C@H]3O[C@H](CN)[C@@H](O)[C@H](O)[C@H]3N)O[C@@H]2CO)[C@H](N)[C@@H](O)[C@@H]1O [FRAMYCETIN]
[1]
  zone of inhibition at 30 µg/disc: 9 mm

## CC(=O)O[C@@H]1[C@H](C)CC(O)=C2C(=O)c3c(ccc(-c4ccc5c(c4O)C(=O)C4=C(O)C[C@@H](C)[C@@H](OC(C)=O)[C@@]4(CO)O5)c3O)O[C@@]21CO [DICERANDROL A]
[2]
  IC100: 7 µg/mL
[3]
  zone of inhibition at 100 µg/disc: 10.8 mm
[4]
  zone of inhibition at 100 µg/disc: 11 mm
[5]
  Activity: inactive
[6]
  Activity: inactive
[7]
  IC100: 7 µg/mL

## NYSTATIN
[8]
  inhibition zone (IZ): 12 mm

## CC(=O)OC[C@]12Oc3ccc(-c4ccc5c(c4O)C(=O)C4=C(O)C[C@@H](C)[C@@H](OC(C)=O)[C@@]4(COC(C)=O)O5)c(O)c3C(=O)C1=C(O)C[C@@H](C)[C@H]2OC(C)=O [DICERANDROL C]
[2]
  IC100: 1.8 µg/mL
[3]
  zone of inhibition at 100 µg/disc: 7 mm
[4]
  zone of inhibition at 100 µg/disc: 8 mm
[5]
  Activity: inactive
[6]
  Activity: inactive
[7]
  IC100: 7 µg/mL

## CC(=O)OC[C@]12Oc3ccc(-c4ccc5c(c4O)C(=O)C4=C(O)C[C@@H](C)[C@@H](OC(C)=O)[C@@]4(CO)O5)c(O)c3C(=O)C1=C(O)C[C@@H](C)[C@H]2OC(C)=O [DICERANDROL B]
[2]
  IC100: 1.8 µg/mL
[3]
  zone of inhibition at 100 µg/disc: 8.5 mm
[4]
  zone of inhibition at 100 µg/disc: 9.5 mm
[5]
  Activity: inactive
[6]
  Activity: inactive
[7]
  IC100: 1.8 µg/mL

## COc1cc([C@@H]2c3cc4c(cc3[C@@H](O[C@@H]3O[C@@H]5CO[C@@H](C)O[C@H]5[C@H](O)[C@H]3O)[C@H]3COC(=O)[C@H]23)OCO4)cc(OC)c1O [ETOPOSIDE]
[2]
  IC100: 30 µg/mL
[7]
  IC100: 125 µg/mL
